Where “and” joins values, the source holds several entries; their conditions need not be identical. Identical values can stand only once. Like-named read-outs stand apart in the source and are kept apart here.
Assays:
[1] = system: human NCI-H146 (SCLC) mouse xenograft tumor model; details: 5 mice per group; for RTV on day 21 after administration (mean ± standard error) / T/C (%) on day 21 after administration / RTV on day 35 after administration (mean ± standard error) / T/C (%) on day 35 after administration: Compound 6 100 mg/kg p.o. qd; for RTV on day 21 after administration (mean ± standard error) / T/C (%) on day 21 after administration: TPT 1 mg/kg p.o. d1-5/w then d1-3/w; for RTV on day 35 after administration (mean ± standard error) / T/C (%) on day 35 after administration: TPT 1 mg/kg p.o.; for CR (tumor complete regression), mice on day 21 after administration / PR (tumor partial regression), mice on day 21 after administration: Compound 6 100 mg/kg, TPT 1 mg/kg; for CR (tumor complete regression), mice on day 46 after administration / PR (tumor partial regression), mice on day 46 after administration / Tumor remission rate % on day 46 after administration: day 46, observation after discontinuation; for Tumor remission rate % on day 21 after administration / Tumor remission rate % on day 46 after administration: remission including CR, PR and SD
Description: A subcutaneous xenograft tumor model of human tumor immunodeficient mice was established by cell inoculation: tumor cells in logarithmic growth phase were collected, counted and resuspended in 1×PBS, and the cell suspension concentration was adjusted to 2.5-5×10^7/mL. Using a 1 mL syringe ([…]), the tumor cells were inoculated subcutaneously in the right side of immunodeficient mice, 5-10×106/0.2 mL/mouse (All animals were purchased from Beijing Vital River Laboratory Animal Technology Co., Ltd. SCXK (Beijing) 2012-0001). All animal experiments were strictly in accordance with the laboratory animal use and management practices of GenePharma Co., Ltd. and Ascentage Pharma Group Co., Ltd. The calculation of relevant parameters referred to the Chinese CFDA “Guidelines for Non-Clinical Research Techniques of Cytotoxic Antitumor Drugs”. The NCI-H146 cells used in the Institute were a gift from Professor Wang Shaomeng of the University of Michigan, USA.
Animal body weight and tumor size were measured twice a week during the experiment. The conditions and death of the animals were observed every day. Routine monitoring included the effects of tumor growth and treatment on normal animal behaviors, including activity, feeding and drinking situations, weight gain or loss, eyes, coat and other abnormalities in the experimental animals. The deaths and clinical symptoms observed during the experiment were recorded in the raw data. The entire operations of administration, measurement of mouse body weight and tumor volume were performed in a clean bench. Plasma and tumor tissues were collected, weighed and photographed after the end of the last administration according to the experimental protocol. Plasma and tumor samples were frozen and stored at −80° C.
Tumor volume (TV) was calculated as: TV=a×b2/2, in which a and b represented the length and width of the tumor as measured, respectively. The relative tumor volume (RTV) was calculated as: RTV=Vt/V1, in which V1 was the tumor volume at the time of grouping and administration, and Vt was the tumor volume measured on a day after administration. […] Change of body weight %=(measured body weight−body weight at the time of grouping)/body weight at the time of grouping×100%.
The synergistic analysis was performed by the following formula 6: synergy factor=((A/C)×(B/C))/(AB/C); A=RTV value of the group administered with A only; B=RTV value of the group administered with B only; C=RTV value of the vehicle control group; AB=RTV value of the group administered with A and B in combination (Clarke R. Issues in experimental design and endpoint analysis in the study of experimental cytotoxic agents in vivo in breast cancer and other models [J]. Breast Cancer Research & Treatment, 1997, 46(2-3): 255-278).
(1) The experimental method was as described in Section (2) of Example 1. In the experiment, the SCLC mouse xenograft tumor model derived from human NCI-H146 tumor cells was established (Gould S E et al. Translational value of mouse models in oncology drug development. Nature medicine. 2015 21, 431-439). When the tumor volume reached 100-200 mm3, randomization was performed according to tumor volume and mouse body weight, and two independent in vivo experiments were performed on the model to evaluate the anti-tumor effects of the combination of Compound 6 and the chemotherapeutic agent TPT (topotecan).
In this experiment, Compound 6 was administered at a dose of 100 mg/kg, p.o., qd; TPT was administered at a dose of 1 mg/kg, p.o., d1-5/w (i.e., a 2-day interval after 5 days of administration).

[2] = system: NCI-H146 (small cell lung cancer (SCLC)); test: WST (CCK-8) anti-proliferation experiment, topotecan alone or combined with Compound 6; type: cell-based; details: Homo sapiens, NCI-H146, 72 h, topotecan alone, read-out: IC50 for proliferation inhibition

O=C(NS(=O)(=O)c1ccc(NC[C@H]2COCCO2)c([N+](=O)[O-])c1)c1ccc(N2CCN(CC3=C(c4ccc(Cl)cc4)CC4(CCC4)CC3)CC2)cc1Oc1cnc2[nH]ccc2c1 [Compound 6, (S)-N-((4-(((1,4-dioxan-2-yl)methyl)amino)-3-nitrophenyl)sulfonyl)-2-((1H-pyrrolo[2,3-b]pyridin-5-yl)oxy)-4-(4-((6-(4-chlorophenyl)spiro[3.5]non-6-en-7-yl)methyl)piperazin-1-yl)benzamide]
RTV on day 21 after administration (mean ± standard error) [1]: 2.51 ± 0.25 | T/C (%) on day 21 after administration [1]: 49% | RTV on day 35 after administration (mean ± standard error) [1]: 4.89 ± 0.39 | T/C (%) on day 35 after administration [1]: 52% | CR (tumor complete regression), mice on day 21 after administration [1]: 0/5CR, 0/5PR, | PR (tumor partial regression), mice on day 21 after administration [1]: 0/5CR, 0/5PR, | CR (tumor complete regression), mice on day 46 after administration [1]: 0/5CR, 0/5PR, | PR (tumor partial regression), mice on day 46 after administration [1]: 0/5CR, 0/5PR, | Tumor remission rate % on day 21 after administration [1]: 0% | Tumor remission rate % on day 46 after administration [1]: 0%

CC[C@@]1(O)C(=O)OCc2c1cc1n(c2=O)Cc2cc3c(CN(C)C)c(O)ccc3nc2-1 [topotecan]
RTV on day 21 after administration (mean ± standard error) [1]: 0.26 ± 0.12 | T/C (%) on day 21 after administration [1]: 5% | RTV on day 35 after administration (mean ± standard error) [1]: 0.77 ± 0.35 | T/C (%) on day 35 after administration [1]: 8% | CR (tumor complete regression), mice on day 21 after administration ([1]; listed as TPT): 2 and 2/5 | PR (tumor partial regression), mice on day 21 after administration ([1]; listed as TPT): 3 and 3/5 | CR (tumor complete regression), mice on day 46 after administration [1]: 2/5 | PR (tumor partial regression), mice on day 46 after administration [1]: 0/5 | Tumor remission rate % on day 21 after administration [1]: 100% | Tumor remission rate % on day 46 after administration [1]: 40% | IC50 ([2]; NCI-H146 (SCLC), first experiment): 127 nM | IC50 ([2]; another NCI-H146 (SCLC) experiment): 68 nM

Source: patent publication US11491167B2, “Combination product of Bcl-2 inhibitor and chemotherapeutic agent and use thereof in the prevention and/or treatment of diseases” (ASCENTAGE PHARMA (SUZHOU) CO., LTD., priority 2018, dated 2022)
